# Assay results: patent US20100256136A1, “Method for Enhancing Pdt Efficacy Using a Tyrosine Kinase Inhibitor” (priority 2006, published 2010)
# Where a name gives a salt, the structure may show the parent alone.
# What was measured:
# HEK-293 R482 cells = assay: Photosensitizer accumulation with ABCG2 modulators; assay type: cell-based; settings: 10 μM modulator, 0.8 μM HPPH, four hours, p<0.05
# Procedure: (§1) Cells were plated in 6-well plates at a density of 3×10^5 cells per well and incubated overnight. […] Cells were cultured for an additional 4 hours, then washed with cold culture medium and with PBS. Photosensitizer levels were determined using Solvable® (Perkin Elmer, Boston, MA) extraction (17). Briefly, the cells were solubilized in 0.5 ml Solvable® at 37° C. overnight. The Solvable® extract then was diluted 1:1 with PBS, the photosensitizer levels were determined by fluorometry, and concentrations were extrapolated from standard curves. Intracellular photosensitizer levels were normalized to intracellular protein content. To study photosensitizer efflux, cells were incubated with photosensitizer for 4 hours, then washed once with cold medium, resuspended in drug-free medium, placed at 37° C. or 4° C. for 1 hour and washed once with cold PBS. Photosensitizer levels were then determined using Solvable® extraction, as above.
# HEK-293 pcDNA cells [1] = assay: Photosensitizer accumulation with ABCG2 modulators; assay type: cell-based; settings: 10 μM modulator, 0.8 μM HPPH, four hours
# Procedure: as §1
# FaDu cells [2] = assay: In vitro PDT phototoxicity (MTT assay) with ABCG2 modulators; assay type: cell-based, human; settings: FaDu cells (lack ABCG2), 0.8 μM HPPH, 10 or 20 μM imatinib mesylate
# BCC-1 cells [3] = assay: as above; assay type: cell-based, human; settings: BCC-1 cells (ABCG2+), 0.4 μM HPPH, 10 μM imatinib mesylate
# Colo 26 cells [4] = assay: as above; assay type: cell-based, murine; settings: ALA, 10 μM imatinib mesylate
# RIF-1 cells [5] = assay: as above; settings: for Increase of HPPH-PDT phototoxicity: 10 μM modulator, high light doses
# Procedure: Cells were plated in 96-well plates at a density of 1×10^4 cells per well. […] Cells were then irradiated with a filtered xenon arc lamp (600-700 nm) at a fluence rate of 14 mW/cm^2 for HPPH and BPD-MA, or with a red light (570-700 nm) at a fluence rate of 6.3 mW/cm^2 for ALA and Photofrin. Cell viability was evaluated by the 1,3-(4,5-dimethylthiazol-2-yl)-2,5-diphenyltetrazolium bromide (MTT) assay 48 hours after irradiation.
# RIF-1 tumors [6] = assay: HPPH levels in tumor, skin and muscle of tumor-bearing mice; assay type: in vivo, C3H/HeJCr mice; settings: same regimen as tumor levels, 24 hours after HPPH
# Procedure: (§2) To determine photosensitizer levels, samples of tumor, skin and muscle tissue were harvested 24 hours after the HPPH administration and dissolved in Solvable at 63° C. overnight. HPPH levels were measured by fluorometry as described above. In other experiments mice were administered ^14C-labelled HPPH and photosensitizer levels in the harvested tissues were determined by scintillation counting. […] After 24 hours, the tumors were treated with 665 nm light from an argon ion laser-pumped dye laser (Spectra Physics, Mountain View CA) with a fluence of 72 J/cm^2 delivered at a rate of 14 mW/cm^2. […] Tumors were measured every 1 to 3 days, and mice were sacrificed when tumor volumes exceeded 400 mm^3.
# Colo 26 cells [7] = assay: Photosensitizer accumulation with ABCG2 modulators; assay type: cell-based, murine; settings: 0.8 mM ALA, with vs without imatinib mesylate
# Procedure: as §1
# RIF-1 tumors [8] = system: RIF-1 tumors
# Procedure: as §2
# RIF-1 cells [9] = assay type: cell-based, murine; settings: for Increase of intracellular HPPH levels: 0.8 μM HPPH, 10 μM modulator, p<0.01
# Procedure: as §1
# HEK-293 pcDNA cells [10] = assay: In vitro PDT phototoxicity (MTT assay) with ABCG2 modulators; assay type: cell-based; settings: 0.8 μM HPPH
# ABCG2 [11] = molecular target: T1, ABCG2 (Homo sapiens, UniProt Q9UNQ0); settings: literature (refs 8, 10); cited from earlier work
# T1 sequence (Q9UNQ0 1-655): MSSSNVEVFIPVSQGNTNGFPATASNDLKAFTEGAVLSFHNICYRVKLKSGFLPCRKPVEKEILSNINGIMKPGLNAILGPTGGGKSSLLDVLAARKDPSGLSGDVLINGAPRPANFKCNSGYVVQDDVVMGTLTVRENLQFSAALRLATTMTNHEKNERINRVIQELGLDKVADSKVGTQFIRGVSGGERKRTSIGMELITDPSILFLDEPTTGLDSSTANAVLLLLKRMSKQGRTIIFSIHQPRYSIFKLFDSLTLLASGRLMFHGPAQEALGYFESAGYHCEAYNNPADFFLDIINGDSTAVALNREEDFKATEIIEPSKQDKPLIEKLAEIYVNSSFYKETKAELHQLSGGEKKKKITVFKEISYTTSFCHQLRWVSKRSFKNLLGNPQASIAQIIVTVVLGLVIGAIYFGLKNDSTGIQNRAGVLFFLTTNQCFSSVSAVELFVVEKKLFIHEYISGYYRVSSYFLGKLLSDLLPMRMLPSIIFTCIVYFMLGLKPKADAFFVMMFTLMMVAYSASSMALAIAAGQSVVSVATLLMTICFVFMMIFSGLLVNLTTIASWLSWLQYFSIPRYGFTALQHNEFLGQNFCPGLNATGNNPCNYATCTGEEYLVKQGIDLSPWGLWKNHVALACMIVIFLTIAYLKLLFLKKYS
# ABCG2 [12] = assay: ABCG2 substrate status concluded from efflux and phototoxicity studies; assay type: cell-based; settings: conclusion from efflux and phototoxicity data
# Procedure: as §1
# [13] = system: HEK-293 R482 cells (ABCG2+); assay: HPPH uptake and efflux in ABCG2-transfected cells; assay type: cell-based
# From the text: (§3) In general known cell lines were used. FaDu human hypopharyngeal squamous cell carcinoma, RIF-1 murine radiation-induced fibrosarcoma and Colo 26 murine colon carcinoma cells were obtained from the American Type Culture Collection (ATCC; Manassas, VA). BCC-1/KMC, a human basal cell carcinoma cell line (14), was provided by Dr. Tak-Wah Wong, National Cheng Kung University Hospital, Tainan, Taiwan. HEK-293 cells transfected with either an empty pcDNA3 vector or a pcDNA3 vector containing full-length ABCG2 (HEK-293 pcDNA or HEK-293 […]) were provided by Dr. Susan Bates at the U.S. National Institute of Health, Bethesda, MD.. Cells were plated in 6-well plates at a density of 3×10^5 cells per well and incubated overnight. […] Cells were cultured for an additional 4 hours, then washed with cold culture medium and with PBS. Photosensitizer levels were determined using Solvable® (Perkin Elmer, Boston, MA) extraction (17). Briefly, the cells were solubilized in 0.5 ml Solvable® at 37° C. overnight. The Solvable® extract then was diluted 1:1 with PBS, the photosensitizer levels were determined by fluorometry, and concentrations were extrapolated from standard curves. Intracellular photosensitizer levels were normalized to intracellular protein content. […] Photosensitizer levels were then determined using Solvable® extraction, as above.
# Colo 26 cells [14] = assay: Photosensitizer efflux, 1 h in drug-free medium at 37° C. or 4° C.; assay type: cell-based, murine; settings: Colo 26 cells (ABCG2+), 1 h efflux
# Procedure: as §1
# RIF-1 cells [15] = assay: as above; assay type: cell-based, murine; settings: RIF-1 cells (ABCG2+), 1 h efflux
# Procedure: as §1
# BCC-1 cells [16] = assay: as above; assay type: cell-based, human; settings: BCC-1 cells (ABCG2+), 1 h efflux
# Procedure: as §1
# FaDu cells [17] = assay: as above; assay type: cell-based, human; settings: lack ABCG2 expression, 1 h efflux
# Procedure: as §1
# [18] = system: HEK-293 pcDNA cells (ABCG2-); assay: HPPH efflux in empty-vector control cells; assay type: cell-based; settings: HEK293-pcDNA3 cells
# From the text: as §3
compound,measurement,setting,value
"Cc1ccc(NC(=O)c2ccc(CN3CCN(C)CC3)cc2)cc1Nc1nccc(-c2cccnc2)n1 [imatinib mesylate, 4[(4-methyl-1-piperazininyl)methyl]-N-(4-methyl-3-[(4-(3-pyidinyl)-2-pyrimidinyl)amino)-phenyl] benzamide methane sulfonate]",Effect on intracellular HPPH levels,HEK-293 R482 cells,increased
same,Effect on HPPH accumulation,HEK-293 pcDNA cells [1],no effect
same,Effect on HPPH-PDT phototoxicity,FaDu cells [2],not
same,Effect on HPPH-PDT phototoxicity,BCC-1 cells [3],increased
same,Effect on phototoxicity of PpIX,Colo 26 cells [4],increased
same,Effect on phototoxicity of BPD-MA,"RIF-1 cells [5]; 0.14 μM BPD-MA, 10 μM imatinib mesylate",increased
same,Increase of HPPH-PDT phototoxicity,RIF-1 cells [5]; 0.8 μM HPPH,~2 logs
same,Effect on phototoxicity of HPPH-lactose-PDT,"RIF-1 cells [5]; 1.6 μM HPPH-Lactose, 10 μM imatinib mesylate",did not increase
same,Effect on phototoxicity of Photofrin-PDT,"RIF-1 cells [5]; 2 μg/ml Photofrin, 10 μM imatinib mesylate",did not increase
same,Effect on HPPH levels in skin and muscle,RIF-1 tumors [6],less effect
same,Effect on intracellular levels of ALA-induced PpIX,Colo 26 cells [7],increased
same,"Anti-tumor effects of imatinib mesylate alone, without PDT","RIF-1 tumors [8]; brief course, 4 x 200 mg/kg oral gavage",no anti-tumor effects
same,Observable toxicity,"RIF-1 tumors [8]; mouse, in vivo",no observable toxicity
same,Effect on intracellular levels of BPD-MA,"RIF-1 cells [9]; 0.14 μM BPD-MA, with vs without imatinib mesylate",increased
same,Increase of intracellular HPPH levels,RIF-1 cells [9],~4 fold
same,Effect on sensitivity to HPPH-PDT,"HEK-293 pcDNA cells [10]; HEK-293 pcDNA3 cells, pretreatment with 10 μM",no effect
"COc1cc2ncnc(Nc3ccc(F)c(Cl)c3)c2cc1OCCCN1CCOCC1 [gefitnib, N-(3-chloro-4-fluoro-phenyly)-7-methoxy-6(3-morpholin-4-ylpropoxy) quinazolin-4-amine]",Effect on HPPH-PDT phototoxicity,"RIF-1 cells [5]; 0.8 μM HPPH, CsA 10 μM, gefitinib 5 μM",effective
same,Dark toxicity,RIF-1 cells [5]; 5 μM,significant dark toxicity
"C=CC1=C(C)c2cc3[nH]c(cc4nc(cc5[nH]c(cc1n2)c(C)c5CCC(=O)O)C(CCC(=O)O)=C4C)c(C)c3C=C [5-aminolevulinic acid (ALA)-induced PpIX, protoporphyrin IX]",Transport by ABCG2,ABCG2 [11],transports
"COc1ccc2c3c([nH]c2c1)[C@H](C=C(C)C)N1C(=O)[C@@H]2CCCN2C(=O)[C@@H]1C3 [FTC, fumitremorgin C]",Increase of HPPH-PDT phototoxicity,RIF-1 cells [5]; 0.8 μM HPPH,~2 logs
same,Increase of intracellular HPPH levels,RIF-1 cells [9],~4 fold
pyropheophorbide-a methyl ester,Transport by ABCG2,ABCG2 [11],transports
C=Cc1c(C)c2cc3nc(c(CC(=O)O)c4[nH]c(cc5nc(cc1[nH]2)C(C)=C5CC)c(C)c4C(=O)O)[C@@H](CCC(=O)O)[C@@H]3C [chlorin e6],Transport by ABCG2,ABCG2 [11],transports
C=Cc1c(C)c2cc3nc(c4c5[nH]c(cc6nc(cc1[nH]2)C(C)=C6CC)c(C)c5C(=O)[C@@H]4C(=O)OC)[C@@H](CCC(=O)O)[C@@H]3C [pheophorbide α],Transport by ABCG2,ABCG2 [11],specific substrate
"CCCCCCOC(C)c1c(C)c2cc3nc(c4c5[nH]c(cc6nc(cc1[nH]2)C(C)=C6CC)c(C)c5C(=O)C4)[C@@H](CCC(=O)O)[C@@H]3C (stereo partly shown) [HPPH, 2-[1-hexyloxyethyl]-2-devinyl pyropheophorbide-a]",Substrate for ABCG2,ABCG2 [12],ABCG2 substrate
same,Intracellular HPPH level after efflux at 4° C. compared to 37° C.,"[13]; HEK-293 R482 cells, 1 h efflux",significantly (p<0.05) higher
same,"HPPH levels after uptake (0 hour group), ABCG2- HEK-293 pcDNA3 cells compared to ABCG2+ HEK-293 R482 cells",[13]; after 4 h uptake,significantly (p<0.05) higher
same,Intracellular HPPH level after efflux at 37° C. compared to 4° C.,Colo 26 cells [14],significantly (p<0.01) lower
same,Intracellular HPPH level after efflux at 37° C. compared to 4° C.,RIF-1 cells [15],significantly (p<0.01) lower
same,Intracellular HPPH level after efflux at 37° C. compared to 4° C.,BCC-1 cells [16],significantly (p<0.01) lower
same,HPPH content following efflux at 37° C. and 4° C.,FaDu cells [17],did not differ significantly
same,Time for 50% of the tumors to grow to 400 mm^3,"RIF-1 tumors [8]; HPPH-PDT treatment alone: 0.2 μmol/kg HPPH, 24 hours later 72 J/cm^2 665 nm light at 14 mW/cm^2",6 days
same,"Sensitivity to HPPH-PDT, HEK-293 pcDNA cells compared to HEK-293 R482 cells",HEK-293 pcDNA cells [10]; no modulator,more sensitive
same,Temperature-dependent changes in efflux of HPPH,[18],no temperature-dependent changes
